The supplement of paper PMC5908809

Experiments:
[1] = test system: normal NK cells expanded with K562-aAPC; experiment: drug sensitivity score (DSS) (DSS units); higher = more sensitive; extreme values may be limits of the assay; settings: 72 h; IL-2 2.5 ng/mL
Procedure: (§1)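 Drug sensitivity and resistance testing on K562-aAPC-expanded normal NK cells: 5 concentrations (10-fold steps over a 10,000-fold range), 72 h at 37 °C, viability by CellTiter-Glo normalised to DMSO and benzethonium chloride controls; DSS from the fitted curve.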

[2] = test system: normal NK cells expanded with K562-aAPC; experiment: percent inhibition of viability; higher = more inhibition; settings: 72 h, IL-2 2.5 ng/mL
Procedure: as §1

[3] = test system: SNK-6 (IL-2 2.5 ng/mL); experiment: drug sensitivity score (DSS) (DSS units); higher = more sensitive; extreme values may be limits of the assay; settings: 72 h
[4] = test system: normal primary NK cells, pool 3 (3 donors) (IL-2 2.5 ng/mL); experiment: as above; settings: 72 h
[5] = test system: KAI3 (IL-2 2.5 ng/mL); experiment: as above; settings: 72 h
[6] = test system: NK-YS (IL-2 2.5 ng/mL); experiment: as above; settings: 72 h
[7] = test system: normal primary NK cells, pool 1 (3 donors) (IL-2 2.5 ng/mL); experiment: as above; settings: 72 h
[8] = test system: NKL (IL-2 2.5 ng/mL); experiment: as above; settings: 72 h
[9] = test system: IMC-1 (IL-2 20 ng/mL); experiment: as above; settings: 72 h
[10] = test system: DERL-7 (IL-2 2.5 ng/mL); experiment: as above; settings: 72 h
[11] = test system: YT (IL-2 2.5 ng/mL); experiment: as above; settings: 72 h
[12] = test system: normal primary NK cells, pool 1 (3 donors), resting (IL-2 0 ng/mL); experiment: as above; settings: 72 h
[13] = test system: NK-92 (IL-2 2.5 ng/mL); experiment: as above; settings: 72 h
[14] = test system: normal primary NK cells, pool 2 (3 donors) (IL-2 2.5 ng/mL); experiment: as above; settings: 72 h
[15] = test system: KHYG-1 (IL-2 2.5 ng/mL); experiment: as above; settings: 72 h
[16] = test system: SNK-6 (IL-2 2.5 ng/mL); experiment: percent inhibition of viability; higher = more inhibition; settings: 72 h
[17] = test system: normal primary NK cells, pool 3 (3 donors) (IL-2 2.5 ng/mL); experiment: as above; settings: 72 h
[18] = test system: KAI3 (IL-2 2.5 ng/mL); experiment: as above; settings: 72 h
[19] = test system: NK-YS (IL-2 2.5 ng/mL); experiment: as above; settings: 72 h
[20] = test system: normal primary NK cells, pool 1 (3 donors) (IL-2 2.5 ng/mL); experiment: as above; settings: 72 h
[21] = test system: NKL (IL-2 2.5 ng/mL); experiment: as above; settings: 72 h
[22] = test system: IMC-1 (IL-2 20 ng/mL); experiment: as above; settings: 72 h
[23] = test system: DERL-7 (IL-2 2.5 ng/mL); experiment: as above; settings: 72 h
[24] = test system: YT (IL-2 2.5 ng/mL); experiment: as above; settings: 72 h
[25] = test system: normal primary NK cells, pool 1 (3 donors), resting (IL-2 0 ng/mL); experiment: as above; settings: 72 h
[26] = test system: NK-92 (IL-2 2.5 ng/mL); experiment: as above; settings: 72 h
[27] = test system: normal primary NK cells, pool 2 (3 donors) (IL-2 2.5 ng/mL); experiment: as above; settings: 72 h
[28] = test system: KHYG-1 (IL-2 2.5 ng/mL); experiment: as above; settings: 72 h

CC(C)(C)c1cc(NC(=O)Nc2ccc(-c3cn4c(n3)sc3cc(OCCN5CCOCC5)ccc34)cc2)no1 [Quizartinib] (max concentration tested 1000 nM)
Settings	drug sensitivity score
[1]	0.13
[3]	0.72
[4]	0.01
[5]	6.21
[6]	2.8
[7]	0
[8]	3.06
[9]	0
[10]	2.22
[11]	2.36
[12]	0
[13]	2.69
[14]	0
[15]	4.98

percent inhibition of viability [%]
Settings	0.1 nM	1 nM	10 nM	100 nM	1000 nM
[2]	-5.93	-6.07	-5.11	1.78	12
[16]	19.5	-15.2	-9.07	-27.8	31.3
[17]	-1.63	14.8	1.27	-1.92	11.7
[18]	0.8	-2.84	2.67	15.2	68.6
[19]	-4.56	-6.94	-2.6	3.09	45.4
[20]	-1.34	14.2	4.45	6.54	7.43
[21]	-4.32	-4.59	-3.22	6.3	40.2
[22]	-3.97	-4.91	-0.67	-2.42	-27
[23]	4.27	4.47	0.07	4.17	33.4
[24]	-3.18	-4.77	-2.32	8.06	28.5
[25]	6.94	18.5	11.5	15.2	11.1
[26]	4.94	6.77	3.37	9.08	32.8
[27]	-4.07	3.45	0.79	8.48	5.08
[28]	-4.77	-6.69	-1.59	7.07	69.5

CNC(=O)c1ccc(N2C(=S)N(c3ccc(C#N)c(C(F)(F)F)c3)C(=O)C23CCC3)cc1F [RD162] (max concentration tested 10000 nM)
Settings	drug sensitivity score
[1]	0
[3]	0
[4]	0
[5]	0.52
[6]	0.56
[7]	0.72
[8]	1.84
[9]	0.76
[10]	0
[11]	1.51
[12]	5.08
[13]	1.56
[14]	0.09
[15]	0.01

percent inhibition of viability [%]
Settings	1 nM	10 nM	100 nM	1000 nM	10000 nM
[2]	-8.24	-9.67	-4.97	7.5	1.43
[16]	-1.99	-21.8	2.57	-8.56	1.37
[17]	-4.05	-1.08	1.71	-2.99	3.64
[18]	-2.44	-0.44	1.83	0.32	18.6
[19]	-12.1	-6.94	-9.33	1.8	16.9
[20]	-2.22	4.97	8.69	3.69	20.8
[21]	-11.3	-5.72	-0.58	7.33	23.9
[22]	-5.69	-2.87	-1.68	2.9	17.6
[23]	2.54	-3.32	-8.09	-8.58	-5.45
[24]	-8.11	-4.09	-6.39	3.85	24.7
[25]	1.38	18.7	13.6	12.9	40.5
[26]	-11.3	5.25	-15.2	-0.07	33.8
[27]	-7.24	-1.28	0.84	3.39	11.3
[28]	-6.85	-6.64	-5.8	2.74	10.4

O=C(c1ccc(OCCN2CCCCC2)cc1)c1c(-c2ccc(O)cc2)sc2cc(O)ccc12 [Raloxifene] (max concentration tested 10000 nM)
Settings	drug sensitivity score
[1]	4.52
[3]	2.49
[4]	0.74
[5]	6.04
[6]	2.92
[7]	0.41
[8]	4.58
[9]	0
[10]	6.02
[11]	4.39
[12]	1.08
[13]	4.99
[14]	1.67
[15]	4.74

percent inhibition of viability [%]
Settings	1 nM	10 nM	100 nM	1000 nM	10000 nM
[2]	-3.9	-1.26	0.77	10.2	53.2
[16]	-9.5	-3.4	-9.29	-36.4	67.1
[17]	-5.87	-1.12	5.04	8.98	16.6
[18]	-6.87	-0.15	5.98	4.92	96.1
[19]	0.85	-3.33	4.79	5.35	40.5
[20]	1.01	-6.07	1.09	-7.43	20.9
[21]	1.76	7.99	-6.69	11.2	52.2
[22]	0.84	1.43	3.84	8.59	10.4
[23]	-6.41	2.29	1.8	13.7	68.8
[24]	-1.19	5.28	-0.98	1	77
[25]	2.49	-4.47	-6.62	-34	38.5
[26]	1.94	6.91	-0.59	-1.98	92.6
[27]	-6.02	-3.78	1.06	2.77	29.1
[28]	-4.91	3.37	0.98	11	54.9

CNC(=O)c1cc(Oc2ccc(NC(=O)Nc3ccc(Cl)c(C(F)(F)F)c3)c(F)c2)ccn1 [Regorafenib] (max concentration tested 10000 nM)
Settings	drug sensitivity score
[1]	0.41
[3]	13.9
[4]	3.62
[5]	4.49
[6]	6.12
[7]	4.63
[8]	6.61
[9]	3.09
[10]	7.66
[11]	8.99
[12]	6.48
[13]	9.31
[14]	5.3
[15]	6.71

percent inhibition of viability [%]
Settings	1 nM	10 nM	100 nM	1000 nM	10000 nM
[2]	3.1	-1.28	-0.64	-2.22	19.1
[16]	9.61	17.5	36.1	38.7	63.7
[17]	-11.7	-13.3	-6.26	6.56	48.1
[18]	-0.04	-3.7	-6.12	-2.83	85.1
[19]	-1	-1.21	3.83	15.4	67
[20]	-13.1	1.52	-11	1.66	79.7
[21]	-7.68	-18.9	-10.6	17.4	70.8
[22]	-4.09	-5.72	3.85	6.77	39.6
[23]	2.39	2.44	-0.06	27.7	70.5
[24]	2	0.08	3.65	21.9	100
[25]	6.64	8.24	-7.13	12.5	79.3
[26]	0.49	12.1	12	37.9	85.7
[27]	-10.1	-16.9	-7.59	12.1	61
[28]	-1.86	-1.02	1.17	11.2	87.3
